Assay results reported in patent US10414760B2, “Cytochrome P450 inhibitors and uses thereof” (ANGION BIOMEDICA CORP., priority 2016, dated 2019).

Experiments:
Assay type in all cases: biochemical
[1] = molecular target: T1, CYP19 (Homo sapiens, UniProt P11511); experiment: CYP19 inhibition: commercially available recombinant enzyme and assay kit
T1 construct: purchased BD Gentest 456260
T1 sequence (P11511 1-503): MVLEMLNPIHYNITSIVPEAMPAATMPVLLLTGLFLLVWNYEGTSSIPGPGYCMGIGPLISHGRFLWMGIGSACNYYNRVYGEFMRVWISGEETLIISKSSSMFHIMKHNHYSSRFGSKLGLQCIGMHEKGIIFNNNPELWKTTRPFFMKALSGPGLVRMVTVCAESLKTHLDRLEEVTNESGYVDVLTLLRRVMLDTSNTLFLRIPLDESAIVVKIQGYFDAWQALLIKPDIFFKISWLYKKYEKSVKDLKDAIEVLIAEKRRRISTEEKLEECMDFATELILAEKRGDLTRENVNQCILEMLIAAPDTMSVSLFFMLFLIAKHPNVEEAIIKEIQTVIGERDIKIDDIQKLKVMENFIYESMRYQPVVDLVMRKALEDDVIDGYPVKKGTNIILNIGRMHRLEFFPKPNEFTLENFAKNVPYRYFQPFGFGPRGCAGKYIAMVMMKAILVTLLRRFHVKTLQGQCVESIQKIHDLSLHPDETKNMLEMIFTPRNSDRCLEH
Description: (§1) Serum Testosterone and PSA and Tumor Testosterone Analysis. Tumor tissue obtained from mice will be homogenized in phosphate buffer (pH 7.4, 0.1 M) and homogenates centrifuged at 2000 g for 20 min. Testosterone concentrations in the serum and in the clear tissue homogenate supernatant will be determined with the ELISA kit from R&D Systems (Catalog # KGR010). Serum PSA concentrations will be measured using a PSA ELISA kit with a serum dilution according to the manufacturers instructions. • c. Breast cancer. To test the efficacy of compounds embodied herein against breast cancer, nude mice carrying human breast cancer lines that are estrogen receptor and Aromatase positive will be used. Cells will be grown in vitro and 2 million will be inoculated in Matrigel (50:50 volume ratio of cells to Matrigel). Cells will be distributed by s.c. injection at the right and left flanks or at the orthotopic sitest in 6 to 8 week old athymic nude mice (BALB/c strain) or severe combined immunodeficient mice under anesthesia. Animals will be treated with compound for 4 weeks, at which point animals will be sacrificed and collect blood samples and tumor tissue for the determination of serum and tumor estrogen levels. Tumors will be excised and a portion will be fixed in formalin for subsequent histochemical and immuno-histochemical analysis. The remainder will be snap frozen in liquid nitrogen and stored at −80° C. • 12. CYP26 inhibition activity. A substrate depletion assay for ATRA metabolism in mouse microsomes is used. […] The assay is run in a 100 μL reaction volume and stopped with an equal volume of methanol. […] CYP17 inhibition assay: In vitro assays for CYP17 17α-hydroxylase and C17,20-lyase activity, assays using rat and dog testis microsomes and ELISA kits from commercial vendors for the detection of formed products are employed. Incubation of rat testis microsomes with the substrate progesterone (P4) results, through the CYP17 17α-hydroxylase and C17,20-lyase activities, in a marked production of androstenedione (AD) in a time and enzyme-concentration dependent manner. […] In another control, microsomes isolated from rat livers, which are known to express very little or no CYP17, are shown to be devoid of this activity. Assays are also used that determine the activity of 17α-hydroxylase activity using P4 as a substrate and detecting HOP4 as a product (using dog testis microsomes) and the activity of C17,20-lyase by using HOP4 as a substrate and AD as a product (rat testis microsomes). • 14. CYP19 inhibition assay: For in vitro assays of CYP19 aromatase activity, commercially available CYP19 enzyme preparations (e.g. BD Gentest Supersomes Catalog #456260) and assay kits (e.g. BD Gentest Catalog #459520) are employed according to the manufacturers instructions.
Selectivity for other P450 enzymes. To assess the selectivity of compounds embodied herein, activity was evaluated first against CYP3A4 and CYP19 using commercially available recombinant enzymes and assay kits. To calculate a selectivity factor, the IC50 for a particular P450 enzyme was divided by the IC50 in the CYP17 combination assay.

[2] = molecular target: T2, CYP17 (Rattus norvegicus, UniProt P11715); experiment: CYP17 inhibition: 17α hydroxylase and C17,20 lyase activity in testis microsomes, ELISA detection; conditions: for IC50: which microsome assay (rat or dog testis) not specified
T2 construct: using rat and dog testis microsomes and ELISA kits from commercial vendors; from tissue; host or cells: rat testis microsomes
T2 sequence (P11715 1-507): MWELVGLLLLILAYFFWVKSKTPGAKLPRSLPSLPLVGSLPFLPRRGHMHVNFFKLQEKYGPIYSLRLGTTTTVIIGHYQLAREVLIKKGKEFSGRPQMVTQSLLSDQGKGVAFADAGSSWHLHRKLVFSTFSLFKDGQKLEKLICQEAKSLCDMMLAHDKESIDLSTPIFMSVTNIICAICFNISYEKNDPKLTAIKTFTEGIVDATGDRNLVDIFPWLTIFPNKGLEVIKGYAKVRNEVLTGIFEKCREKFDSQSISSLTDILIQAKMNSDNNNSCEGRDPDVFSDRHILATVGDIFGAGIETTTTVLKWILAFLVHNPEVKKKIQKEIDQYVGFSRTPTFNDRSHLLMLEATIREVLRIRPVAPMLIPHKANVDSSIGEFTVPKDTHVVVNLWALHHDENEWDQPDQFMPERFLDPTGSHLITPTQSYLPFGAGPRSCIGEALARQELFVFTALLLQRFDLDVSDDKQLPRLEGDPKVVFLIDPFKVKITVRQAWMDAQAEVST
Description: Serum Testosterone and PSA and Tumor Testosterone Analysis. Tumor tissue obtained from mice will be homogenized in phosphate buffer (pH 7.4, 0.1 M) and homogenates centrifuged at 2000 g for 20 min. Testosterone concentrations in the serum and in the clear tissue homogenate supernatant will be determined with the ELISA kit from R&D Systems (Catalog # KGR010). Serum PSA concentrations will be measured using a PSA ELISA kit with a serum dilution according to the manufacturers instructions. • c. Breast cancer. To test the efficacy of compounds embodied herein against breast cancer, nude mice carrying human breast cancer lines that are estrogen receptor and Aromatase positive will be used. Cells will be grown in vitro and 2 million will be inoculated in Matrigel (50:50 volume ratio of cells to Matrigel). Cells will be distributed by s.c. injection at the right and left flanks or at the orthotopic sitest in 6 to 8 week old athymic nude mice (BALB/c strain) or severe combined immunodeficient mice under anesthesia. Animals will be treated with compound for 4 weeks, at which point animals will be sacrificed and collect blood samples and tumor tissue for the determination of serum and tumor estrogen levels. Tumors will be excised and a portion will be fixed in formalin for subsequent histochemical and immuno-histochemical analysis. The remainder will be snap frozen in liquid nitrogen and stored at −80° C. • 12. CYP26 inhibition activity. […] The assay is run in a 100 μL reaction volume and stopped with an equal volume of methanol. […] CYP17 inhibition assay: In vitro assays for CYP17 17α-hydroxylase and C17,20-lyase activity, assays using rat and dog testis microsomes and ELISA kits from commercial vendors for the detection of formed products are employed. […] Assays are also used that determine the activity of 17α-hydroxylase activity using P4 as a substrate and detecting HOP4 as a product (using dog testis microsomes) and the activity of C17,20-lyase by using HOP4 as a substrate and AD as a product (rat testis microsomes). • 14.
CYP17 inhibition. In vitro assays for CYP17 17α hydroxylase and C17,20 lyase activity using rat and dog testis microsomes and ELISA kits from commercial vendors for the detection of formed products were employed. […] Assays were also used that determine the activity of 17α hydroxylase activity using P4 as a substrate and detecting HOP4 as a product (using dog testis microsomes) and the activity of C17,20 lyase by using HOP4 as a substrate and AD as a product (rat testis microsomes).

[3] = molecular target: T3, CYP26 (Mus musculus, UniProt O55127); experiment: CYP26 inhibition: substrate depletion assay for ATRA metabolism in mouse microsomes
T3 construct: tissue Xenotech; host or cells: liver microsomes of ATRA-treated mice
T3 sequence (O55127 1-497): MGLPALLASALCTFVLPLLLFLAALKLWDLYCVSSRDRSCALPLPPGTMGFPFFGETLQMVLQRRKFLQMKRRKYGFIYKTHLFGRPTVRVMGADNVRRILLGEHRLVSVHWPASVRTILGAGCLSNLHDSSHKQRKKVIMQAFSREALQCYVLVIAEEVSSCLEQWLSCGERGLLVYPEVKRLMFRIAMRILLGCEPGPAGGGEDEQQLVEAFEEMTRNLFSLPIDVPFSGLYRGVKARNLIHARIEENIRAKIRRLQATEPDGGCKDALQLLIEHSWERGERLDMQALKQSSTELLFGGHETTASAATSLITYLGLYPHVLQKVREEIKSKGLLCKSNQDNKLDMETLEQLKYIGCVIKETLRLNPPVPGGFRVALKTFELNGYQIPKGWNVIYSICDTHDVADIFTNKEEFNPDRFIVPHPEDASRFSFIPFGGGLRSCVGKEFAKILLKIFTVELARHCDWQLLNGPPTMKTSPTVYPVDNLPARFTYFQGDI
Description: as §1
CYP26 inhibition. […] The assay was run in a 100 μL reaction volume and stopped with an equal volume of methanol. […] Other compounds of formula (I) are similarly potent, for example with an IC50 of 1.6 nM.

SMILES | IC50 [1] [nM] | IC50 [2] [µM] | IC50 [3] [nM] | Inhibition of androstenedione (AD) production from progesterone (P4) ([2]; rat testis microsomes, 17α hydroxylase and C17,20 lyase activities)
CCC(C(c1ccc2nc(NC(N)=O)sc2c1)n1ccnc1)N(C)C (stereo not drawn) [Example 2, 1-(6-(2-(Dimethylamino)-1-(1H-imidazol-1-yl)butyl)benzo[d]thiazol-2-yl)urea] | < 1000 | < 5 | – | –
CCC(C(c1ccc2nc(NC(C)=O)sc2c1)n1ccnc1)N(C)CC (stereo not drawn) [Example 9, N-(6-(2-(Ethyl(methyl)amino)-1-(1H-imidazol-1-yl)butyl)benzo[d]thiazol-2-yl)acetamide] | < 1000 | < 5 | – | –
CCC(C(c1ccc2nc(Cl)sc2c1)n1ccnc1)N(C)CC (stereo not drawn) [Example 10, 1-(2-Chlorobenzo[d]thiazol-6-yl)-N-ethyl-1-(1H-imidazol-1-yl)-N-methylbutan-2-amine] | < 1000 | < 5 | – | –
CCC(C(c1ccc2nc(C(=O)OC)sc2c1)n1ccnc1)N(C)C (stereo not drawn) [Example 12, Methyl 6-(2-(dimethylamino)-1-(1H-imidazol-1-yl)butyl)benzo[d]thiazole-2-carboxylate] | < 1000 | < 5 | – | –
CCC(C(c1ccc2nc(C(=N)OC)sc2c1)n1ccnc1)N(C)C (stereo not drawn) [Example 13, Methyl 6-(2-(dimethylamino)-1-(1H-imidazol-1-yl)butyl)benzo[d]thiazole-2-carbimidate] | < 1000 | < 5 | – | –
CCC(C(c1ccc2nc(C(N)=O)sc2c1)n1ccnc1)N(C)C (stereo not drawn) [Example 14, 6-(2-(Dimethylamino)-1-(1H-imidazol-1-yl)butyl)benzo[d]thiazole-2-carboxamide] | < 1000 | < 5 | – | –
CCC(C(c1ccc2ncsc2c1)n1ccnc1)N(C)C (stereo not drawn) [Example 15, 1-(Benzo[d]thiazol-6-yl)-1-(1H-imidazol-1-yl)-N,N-dimethylbutan-2-amine] | < 1000 | < 5 | – | –
CCC(CC)C(c1ccc2nc(N)sc2c1)n1ccnc1 (stereo not drawn) [Example 27, 6-(2-Ethyl-1-(1H-imidazol-1-yl)butyl)benzo[d]thiazol-2-amine] | < 1000 | < 5 | – | –
CCC(CC)C(c1ccc2nc(Br)sc2c1)n1ccnc1 (stereo not drawn) [Example 28, 2-bromo-6-(2-ethyl-1-(1H-imidazol-1-yl)butyl)benzo[d]thiazole] | < 1000 | < 5 | – | –
CCC(C(c1ccc2nc(N)sc2c1)n1ccnc1)N(C)CC (stereo not drawn) [Example 32, 6-(2-(Ethyl(methyl)amino)-1-(1H-imidazol-1-yl)butyl)benzo[d]thiazol-2-amine] | < 1000 | < 5 | – | –
CCC(C(c1ccc2nc(Br)sc2c1)n1ccnc1)N(C)CC (stereo not drawn) [Example 36, 1-(2-Bromobenzo[d]thiazol-6-yl)-N-ethyl-1-(1H-imidazol-1-yl)-N-methylbutan-2-amine] | < 1000 | < 5 | – | –
CCC(C(c1ccc2nc(-c3cccc(-c4nn[nH]n4)c3)sc2c1)n1ccnc1)N(C)C (stereo not drawn) [Example 71, 1-(2-(3-(2H-Tetrazol-5-yl)phenyl)benzo[d]thiazol-6-yl)-1-(1H-imidazol-1-yl)-N,N-dimethylbutan-2-amine] | – | – | < 1000 | –
CCC(C(c1ccc2nc(-c3ccc(-c4nn[nH]n4)cc3)sc2c1)n1ccnc1)N(C)C (stereo not drawn) [Example 72, 1-(2-(4-(2H-Tetrazol-5-yl)phenyl)benzo[d]thiazol-6-yl)-1-(1H-imidazol-1-yl)-N,N-dimethylbutan-2-amine] | – | – | < 1000 | –
CCC(CC)C(c1ccc2nc(-c3ccc(Cl)c(C(=O)OC)c3)sc2c1)n1ccnc1 (stereo not drawn) [Example 73, Methyl 2-chloro-5-(6-(2-ethyl-1-(1H-imidazol-1-yl)butyl)benzo[d]thiazol-2-yl)benzoate] | – | – | < 1000 | –
CCC(CC)C(c1ccc2nc(-c3ccc(Cl)c(C(=O)O)c3)sc2c1)n1ccnc1 (stereo not drawn) [Example 74, 2-Chloro-5-(6-(2-ethyl-1-(1H-imidazol-1-yl)butyl)benzo[d]thiazol-2-yl)benzoic acid] | – | – | < 1000 | –
CC(=O)O[C@H]1CC[C@@]2(C)C(=CC[C@@H]3[C@@H]2CC[C@]2(C)C(c4cccnc4)=CC[C@@H]32)C1 [abiraterone acetate, reference compound] | – | – | – | completely inhibited
